Reference: US11365195B2, “Atypical inhibitors of monoamine transporters; method of making; and use thereof” (THE UNITED STATES OF AMERICA, AS REPRESENTED BY THE …, priority 2017, dated 2022)
Where two headings read alike, the source gives them in different places.

Experiments:
DAT = target: T1, DAT (Rattus norvegicus, UniProt P23977); assay: DAT radioligand binding in rat striatum ([3H]-WIN35,428 competition); conditions: for SERT/DAT: ratio of SERT Ki to DAT Ki
T1 construct: 100 μl of tissue preparation (1.5 mg of brain striatum membranes per well); tissue Bioreclamation IVT (Hicksville, N.Y.); host or cells: male Sprague-Dawley rat brain striatum membranes
Procedure: (§1) Binding affinities of the analogue compounds were evaluated at the DAT and SERT in rat brain membranes, and sigma-1 in guinea pig brain membranes according to the following protocols.
DAT Radioligand Binding in Rat Striatum
The tissue was centrifuged at 20,000 rpm for 10 min at 4° C. The pellet was suspended in cold buffer and centrifuged again using the same settings. The resulting pellet was resuspended in cold buffer at a concentration of 15 mg/mL OWW (original wet weight). On test day, all test compounds were freshly dissolved in 30% DMSO and 70% H2O to a stock concentration of 1 mM or 100 μM When necessary, to assist the solubilization of compounds, 10 μl of glacial acetic acid was added along with the DMSO (in place of 10 μl final H2O volume). Each test compound was then diluted into 10 half-log serial dilutions using 30% DMSO vehicle. […] Non-specific binding was determined using […] Indatraline and total binding was determined with 30% DMSO vehicle. The reaction was started with the addition of the tissue. […] The filters were washed 3 times with 3 mL (3×1 mL/well) of ice cold binding buffer. […] These analyses were performed using GraphPad Prism version 6.00 for Macintosh (GraphPad Software, San Diego, Calif.).

SERT = target: T2, SERT (Rattus norvegicus, UniProt P31652); assay: SERT radioligand binding in rat midbrain ([3H]-Citalopram competition)
T2 construct: 100 μl of tissue preparation (2 mg of brain stem membranes per well); tissue Bioreclamation IVT (Hicksville, N.Y.); host or cells: male Sprague-Dawley rat brain stem membranes
Procedure: as §1
SERT Radioligand Binding in Rat Midbrain
The tissue was centrifuged at 20,000 rpm for 10 min at 4° C. The pellet was suspended in cold buffer and centrifuged again using the same settings. The resulting pellet was resuspended in cold buffer at a concentration of 20 mg/mL OWW (original wet weight). On test day, all test compounds were freshly dissolved in 30% DMSO and 70% H2O to a stock concentration of 1 mM or 100 μM. When necessary, to assist the solubilization of compounds, 10 μl of glacial acetic acid was added along with the DMSO (in place of 10 μl final H2O volume). Each test compound was then diluted into 10 half-log serial dilutions using 30% DMSO vehicle. […] Non-specific binding was determined using […] Fluoxetine HCl and total binding was determined with 30% DMSO vehicle. The reaction was started with the addition of the tissue. All compound dilutions were tested in triplicate and the reaction incubated for 60 min at room temperature. The reaction was terminated by filtration through Perkin Elmer Uni-Filter-96 GF/B, presoaked for 60 min in 0.3% polyethylenimine, using a Brandel 96-Well Plates Harvester Manifold (Brandel Instruments, Gaithersburg, Md.). The filters were washed 3 times with 3 mL (3×1 mL/well) of ice cold binding buffer. […] These analyses were performed using GraphPad Prism version 6.00 for Macintosh (GraphPad Software, San Diego, Calif.).

σ1R = target: T3, σ1R (Cavia porcellus, UniProt Q60492); assay: σ1R radioligand binding in guinea pig cortex ([3H]-(+)-Pentazocine competition); conditions: for σ1/DAT: ratio of σ1 to DAT affinity values; for σ1/SERT: ratio of σ1 to SERT affinity values
T3 construct: tissue BioReclamation IVT (Hicksville, N.Y.); host or cells: male Hartley guinea pig brain cortex membranes
Procedure: as §1
σ1R Radioligand Binding in Guinea Pig Cortex
Male Hartley guinea pig cortices were dissected from freshly harvested brains (shipped cold in PBS buffer from BioReclamation IVT (Hicksville, N.Y.)) and frozen at −80° C. for future use. […] The supernatant was collected in a clean tube and the pellet re-suspended in 10 ml of cold buffer and centrifuged again (˜1,200 rpm) for 10 min at 4° C. […] The final pellet was suspended in ice-cold binding buffer at 50 mg/ml concentration. […] All test compounds were freshly dissolved in 30% DMSO and 70% H2O to a stock concentration of 1 mM or 100 μM. When necessary, to assist the solubilization of compounds, 10 μl of glacial acetic acid was added along with the DMSO (in place of 10 μl final H2O volume). Each test compound was then diluted into 10 half-log serial dilutions using 30% DMSO as the vehicle. […] Nonspecific binding was determined using either 10 μM PRE084 or 10 μM (+)-Pentazocine and total binding was determined with 30% DMSO vehicle (3% DMSO final concentration). […] The filters were washed 3 times with 3 ml (3×1 ml/well) of ice cold binding buffer.

[1] = Phase I metabolic stability in rat liver microsomes; assay type: in vitro ADME; conditions: for Phase I in Liver Microsomes, Negative Control: rat liver microsomes lacking NADPH; for Phase I in Liver Microsomes, Rat: with NADPH, 10 μM compound, 0.5 mg/mL microsomes
Procedure: Methods: Phase I metabolic stability assays were conducted in rat liver microsomes. For phase I metabolism, the reactions were carried out with 100 mM potassium phosphate buffer, pH 7.4, in the presence of NADPH regenerating system (1.3 mM NADPH, 3.3 mM glucose 6-phosphate, 3.3 mM MgCl2, 0.4 U/mL glucose-6-phosphate dehydrogenase, […] sodium citrate). Reactions in triplicate were initiated by addition of the liver microsomes to the incubation mixture (compound final concentration was 10 μM; 0.5 mg/mL microsomes). Compound disappearance was monitored via LC/MS/MS. […] The total run time for each analyte was 5.0 min.

[2] = rat striatum membranes, [3H]-WIN35,428, mean ± SEM, read-out: DAT (rat striatum) Ki ± SEM
[3] = rat midbrain/brain stem membranes, [3H]-Citalopram, mean ± SEM, read-out: SERT (rat mid-brain-stem) Ki ± SEM

T2 sequence (P31652 whole entry): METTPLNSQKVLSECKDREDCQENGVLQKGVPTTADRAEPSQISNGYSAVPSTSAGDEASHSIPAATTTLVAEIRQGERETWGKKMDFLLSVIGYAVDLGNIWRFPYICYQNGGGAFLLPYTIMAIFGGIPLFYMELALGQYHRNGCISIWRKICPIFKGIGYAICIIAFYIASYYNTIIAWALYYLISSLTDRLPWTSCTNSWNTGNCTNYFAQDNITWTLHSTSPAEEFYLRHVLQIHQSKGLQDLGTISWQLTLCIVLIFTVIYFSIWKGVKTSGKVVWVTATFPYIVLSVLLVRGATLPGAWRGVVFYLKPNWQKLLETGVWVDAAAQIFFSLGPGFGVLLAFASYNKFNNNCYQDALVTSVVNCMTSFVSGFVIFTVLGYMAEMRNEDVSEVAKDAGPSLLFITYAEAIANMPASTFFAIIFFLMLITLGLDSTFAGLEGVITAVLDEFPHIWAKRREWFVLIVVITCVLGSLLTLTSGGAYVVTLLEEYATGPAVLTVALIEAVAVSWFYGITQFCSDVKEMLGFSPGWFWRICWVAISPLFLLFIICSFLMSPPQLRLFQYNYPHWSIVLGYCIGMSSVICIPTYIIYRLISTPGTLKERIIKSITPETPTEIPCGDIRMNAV
T1 sequence (P23977 whole entry): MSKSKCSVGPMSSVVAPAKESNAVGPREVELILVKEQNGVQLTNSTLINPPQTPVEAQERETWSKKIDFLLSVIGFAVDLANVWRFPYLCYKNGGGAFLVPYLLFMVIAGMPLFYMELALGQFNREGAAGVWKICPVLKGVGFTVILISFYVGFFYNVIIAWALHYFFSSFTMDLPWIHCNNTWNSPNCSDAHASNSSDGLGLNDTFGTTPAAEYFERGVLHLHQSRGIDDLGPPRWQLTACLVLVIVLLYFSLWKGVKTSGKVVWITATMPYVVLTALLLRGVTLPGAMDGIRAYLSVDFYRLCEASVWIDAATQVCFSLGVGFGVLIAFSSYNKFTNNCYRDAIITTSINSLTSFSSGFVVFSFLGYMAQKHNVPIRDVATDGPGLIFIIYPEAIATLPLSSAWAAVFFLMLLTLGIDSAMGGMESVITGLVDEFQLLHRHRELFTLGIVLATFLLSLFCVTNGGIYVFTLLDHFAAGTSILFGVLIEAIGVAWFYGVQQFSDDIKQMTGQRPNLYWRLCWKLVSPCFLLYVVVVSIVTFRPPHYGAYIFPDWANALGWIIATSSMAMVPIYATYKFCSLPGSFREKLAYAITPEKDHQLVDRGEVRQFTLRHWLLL
T3 sequence (Q60492 whole entry): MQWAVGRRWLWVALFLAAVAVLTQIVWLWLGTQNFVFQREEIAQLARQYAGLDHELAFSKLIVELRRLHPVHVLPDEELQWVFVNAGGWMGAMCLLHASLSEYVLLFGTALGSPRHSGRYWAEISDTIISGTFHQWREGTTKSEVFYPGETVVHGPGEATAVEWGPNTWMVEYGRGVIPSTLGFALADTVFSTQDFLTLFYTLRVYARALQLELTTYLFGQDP

Structure (SMILES)	Ki (DAT; [2]) [µM]	SERT/DAT (DAT)	Ki (SERT; [3]) [µM]	σ1/DAT (σ1R)	σ1/SERT (σ1R)	also measured
Fc1ccc(C(SCCNC2CCN(Cc3ccccc3)CC2)c2ccc(F)cc2)cc1 [JBG01-052, 1-Benzyl-N-(2-((bis(4-fluorophenyl)methyl)thio)ethyl)piperidin-4-amine]	0.0329 ± 0.00586	12.37	0.407 ± 0.0579	0.12	0.0098	Kd (σ1R): 0.00397 ± 0.000767 µM
Cl.Cl.OC(Cc1ccccc1)CN(CC(O)Cc1ccccc1)C1CCN(CCSC(c2ccc(F)cc2)c2ccc(F)cc2)CC1 (centres unmarked) [JBG01-056, 3,3′-((1-(2-((Bis(4-fluorophenyl)methyl)thio)ethyl)piperidin-4-yl)azanediyl)bis(1-phenylpropan-2-ol)]		8.44		1.75	0.21	Ki (DAT): 0.186 ± 0.0464 µM; Ki (SERT): 1.57 ± 0.315 µM; Kd (σ1R): 0.326 ± 0.0224 µM
Fc1ccc(C(SCCN2CCC(NCc3ccccc3)CC2)c2ccc(F)cc2)cc1 [JBG01-057, N-Benzyl-1-(2-((bis(4-fluorophenyl)methyl)thio)ethyl)piperidin-4-amine]	0.108 ± 0.0175	3.05	0.329 ± 0.0343	0.56	0.19	
Cl.Cl.OC(Cc1ccccc1)CN1CCC(NCCSC(c2ccc(F)cc2)c2ccc(F)cc2)CC1 (centres unmarked) [JBG01-058, 1-(4-((2-((Bis(4-fluorophenyl)methyl)thio)ethyl)amino)piperidin-1-yl)-3-phenylpropan-2-ol]			0.128 ± 0.0332			Phase I in Liver Microsomes, Negative Control ([1]; 0 min): 100%; Phase I in Liver Microsomes, Rat ([1]; 0 min): 100%; Phase I in Liver Microsomes, Rat ([1]; 30 min): 98%; Phase I in Liver Microsomes, Negative Control ([1]; 60 min): 96%; Phase I in Liver Microsomes, Rat ([1]; 60 min): 74%
Cl.Cl.Fc1ccc(CNC2CCN(CCSC(c3ccc(F)cc3)c3ccc(F)cc3)CC2)cc1 [JBG01-064, 1-(2-((Bis(4-fluorophenyl)methyl)thio)ethyl)-N-(4-fluorobenzyl)piperidin-4-amine]	0.0559 ± 0.00608	4.78	0.267 ± 0.00925	0.74	0.16	
Cl.Cl.Fc1ccc(C(SCCNC2CCN(Cc3ccc(Cl)cc3)CC2)c2ccc(F)cc2)cc1 [JBG01-078, N-(2-((Bis(4-fluorophenyl)methyl)thio)ethyl)-1-(4 chlorobenzyl)piperidin-4-amine]	0.0396 ± 0.00927	8.99	0.356 ± 0.000862	1.15	0.13	
Cl.Cl.Fc1ccc(C(SCCNC2CCN(Cc3ccc(C(F)(F)F)cc3)CC2)c2ccc(F)cc2)cc1 [JBG01-083, N-(2-((Bis(4-fluorophenyl)methyl)thio)ethyl)-1-(4-(trifluoromethyl)benzyl)piperidin-4-amine]	0.19 ± 0.0479	8.53	1.62 ± 0.175			
Cl.Cl.Fc1ccc(C(SCCNC2CCN(CCc3ccccc3)CC2)c2ccc(F)cc2)cc1 [JBG01-084, N-(2-((Bis(4-fluorophenyl)methyl)thio)ethyl)-1-phenethylpiperidin-4-amine]	0.0315 ± 0.00532	4.57	0.144 ± 0.017	1.83	0.40	
Cl.Cl.Fc1ccc(C(SCCN2CCC(NCc3ccc(Cl)cc3)CC2)c2ccc(F)cc2)cc1 [JBG01-086, 1-(2-((Bis(4-fluorophenyl)methyl)thio)ethyl)-N-(4-chlorobenzyl)piperidin-4-amine]	0.0865 ± 0.0356	4.57	0.395 ± 0.0566	0.72	0.16	
Cl.Cl.Fc1ccc(C(SCCN2CCC(NCc3ccc(C(F)(F)F)cc3)CC2)c2ccc(F)cc2)cc1 [JBG01-087, 1-(2-((Bis(4-fluorophenyl)methyl)thio)ethyl)-N-(4-(trifluoromethyl)benzyl)piperidin-4-amine]	0.128 ± 0.0319	8.13	1.04 ± 0.19			
Cl.O=C(c1ccccc1)N1CCC(NCCSC(c2ccc(F)cc2)c2ccc(F)cc2)CC1 [JBG02-009, (4-((2-((Bis(4-fluorophenyl)methyl)thio)ethyl)amino)piperidin-1-yl)(phenyl)methanone]						Kd (σ1R): 0.00204 ± 0.000298 µM; Phase I in Liver Microsomes, Negative Control ([1]; 0 min): 100%; Phase I in Liver Microsomes, Rat ([1]; 0 min): 100%; Phase I in Liver Microsomes, Rat ([1]; 30 min): 20%; Phase I in Liver Microsomes, Negative Control ([1]; 60 min): 100%; Phase I in Liver Microsomes, Rat ([1]; 60 min): 7%; stability to Phase I metabolism (in words) ([1]; rat liver microsomes fortified with NADPH): susceptibility
Cl.Cl.Fc1ccc(C(SCCNC2CCN(Cc3cc4ccccc4[nH]3)CC2)c2ccc(F)cc2)cc1 [JBG02-014, 1-((1H-Indol-2-yl)methyl)-N-(2-((bis(4-fluorophenyl)methyl)thio)ethyl)piperidin-4-amine]	0.179 ± 0.022	9.61	1.72 ± 0.516			
O=C(c1cc2ccccc2o1)N1CCC(NCCSC(c2ccc(F)cc2)c2ccc(F)cc2)CC1 [JBG02-015, Benzofuran-2-yl(4-((2-((bis(4-fluorophenyl)methyl)thio)ethyl)amino)piperidin-1-yl)methanone]	0.115 ± 0.0195		0.0964 ± 0.0237			
Cl.Cl.O.O=C(c1cc2ccccc2[nH]1)N1CCC(NCCSC(c2ccc(F)cc2)c2ccc(F)cc2)CC1 [JBG02-029, (4-((2-((Bis(4-fluorophenyl)methyl)thio)ethyl)amino)piperidin-1-yl)(1H-indol-2-yl)methanone]		5.21	0.938 ± 0.0765			Ki (DAT): 0.18 ± 0.0398 µM
Cl.O=C(c1ccccc1)N1CCC(NCC[S+]([O-])C(c2ccc(F)cc2)c2ccc(F)cc2)CC1 (centres unmarked) [JBG02-055, (4-((2-((Bis(4-fluorophenyl)methyl)sulfinyl)ethyl)amino)piperidin-1-yl)(phenyl)methanone]	0.0791 ± 0.0206	97.72	7.73 ± 0.732			
CC(C)(C)C(=O)N1CCC(NCCSC(c2ccc(F)cc2)c2ccc(F)cc2)CC1.Cl [JBG02-064, 1-(4-((2-((Bis(4-fluorophenyl)methyl)thio)ethyl)amino)piperidin-1-yl)-2,2-dimethylpropan-1-one]	0.352 ± 0.137	2.84	1 ± 0.228			
CC(C)(C)CN1CCC(NCCSC(c2ccc(F)cc2)c2ccc(F)cc2)CC1 [JBG02-066, N-(2-((Bis(4-fluorophenyl)methyl)thio)ethyl)-1-neopentylpiperidin-4-amine]	0.279 ± 0.0394	3.39	0.947 ± 0.101	1.13		
